Test results as given in patent US4981954A, “Novel azoxy compounds and process for production thereof” (Kowa Company, Ltd., priority 1987, dated 1991).
≈ marks a conversion by molar mass, not a printed value.

Tests used:
Type in all cases: cell-based
Candida albicans = experiment: Antifungal activity, minimum growth inhibition concentration (MIC), Candida albicans; conditions: Sabouraud dextrose agar, 27° C., 2 to 4 days
Method: (§1) The minimum growth inhibition concentrations (MIC) of the present substances against eumycetes are as tabulated below.
(§2) Culture medium: Sabouraud dextrose agar
(§3) Culturing conditions: 27° C., 2 to 4 days

Aspergillus fumigatus = experiment: Antifungal activity, minimum growth inhibition concentration (MIC), Aspergillus fumigatus; conditions: Sabouraud dextrose agar, 27° C., 2 to 4 days
Method: as §1, §2, §3

Cryptococcus neoformans = experiment: Antifungal activity, minimum growth inhibition concentration (MIC), Cryptococcus neoformans; conditions: Sabouraud dextrose agar, 27° C., 2 to 4 days
Method: as §1, §2, §3

[1] = tested on: Trichophyton mentagraphytes; experiment: Antifungal activity, minimum growth inhibition concentration (MIC), Trichophyton mentagraphytes
Method: as §1, §2, §3

Trichophyton rubrum = experiment: Antifungal activity, minimum growth inhibition concentration (MIC), Trichophyton rubrum; conditions: Sabouraud dextrose agar, 27° C., 2 to 4 days
Method: as §1, §2, §3

SMILES	MIC (Candida albicans) [µg/mL]	MIC (Aspergillus fumigatus) [µg/mL]	MIC (Cryptococcus neoformans) [µg/mL]	MIC [1] [µg/mL]	MIC (Trichophyton rubrum) [µg/mL]
CCCCC=C[N+]([O-])=NC(C)C(C)O (stereo not shown) [KA-7367B]	50 (≈ 250 µM)	100 (≈ 499 µM)	100 (≈ 499 µM)	100 (≈ 499 µM)	100 (≈ 499 µM)
CCCCC=C[N+]([O-])=NC(C)C(C)=O (stereo not shown) [KA-7367A]	1.6 (≈ 8.07 µM)	6.25 (≈ 31.5 µM)	3.2 (≈ 16.1 µM)	6.25 (≈ 31.5 µM)	3.2 (≈ 16.1 µM)
